The values that follow come from patent US6329399A, “Antifungal amine derivatives and processing for producing the same” (Pola Chemical Industries, Inc., priority 1997, dated 2001).

Converted amounts (≈) assume the structure as drawn.

What all share (assay): Measurement of antimycotic activity (minimum inhibitory concentration, MIC) against dermatophyte
What all share (format): cell-based

Test [1] has as its system M. canis TIMM0760. To be noted: Microsporum canis, 168 h, Sabouraud's agar pH=5.9, 27° C., 1 week. The procedure:
(§1) The antimycotic activity of the compounds of the invention against dermatophyte was examined.
(§2) More particularly, the test dermatophyte strains shown in Tables 9 and 10 below were cultivated in advance on a slant culture of Sabouraud's agar medium (manufactured by Nissui Seiyaku Co., Ltd.; 1.0% peptone, 4.0% glucose, 1.5% agar, pH=5.9) at 27° C. for 2 weeks to allow them to grow conidia sufficiently. Then, sterilized physiological saline containing 0.05 weight/volume % of Tween 80 was added to the culture and while rubbing the surface of the culture with a platinum loop, the conidia were separated and caused to float. Using a hemocytometer, the filtrate was adjusted with sterilized physiological saline such that the concentration of conidia was 10^6 cells/ml, which was used as a test microbe liquid.
(§3) On the other hand, PR compounds and AD compounds (test drugs) of the present invention obtained in the examples described above were taken each in an amount of 10 mg, and 1 ml of dimethyl sulfoxide was added thereto to form a stock solution, of which 500 μl was taken and 500 μl of dimethyl sulfoxide was added thereto to prepare a 2-fold dilution. The same operation was repeated to prepare 13-stages ranging from 10 to 0.0025 mg/ml (final concentration of test system 100 to 0.025 μg/ml) of diluted drug solutions. Solutions with various diluted concentrations of test drug were each dispensed in sterilized petri dish with an amount of 100 μl. Then, 10 ml of sterile-dissolved Sabouraud's agar medium (1.0% peptone, 4.0% glucose, 1.5% agar, pH=5.9) was added, well mixed and solidified. Then, 5 μl of the test microbe solution previously adjusted were added using a microplanter, respectively.
(§4) The results are shown in Table 9 for PR compounds and in Table 10 for AD compounds, respectively. In the column of Compound No. in Tables 9 and 10, "PR-" or "AD-" were omitted.

Test [2] deals with T. mentagrophytes IF07552. Conditions: Trichophyton mentagrophytes, 168 h, Sabouraud's agar pH=5.9, 27° C., 1 week. The procedure: as §1, §2, §3, §4
For test [3], the system named is T. rubrum IF09185. Conditions: Trichophyton rubrum, 168 h, Sabouraud's agar pH=5.9, 27° C., 1 week. The procedure: as §1, §2, §3, §4
Test [4] concerns T. violaceum TIMM1264. Conditions: Trichophyton violaceum, 168 h, Sabouraud's agar pH=5.9, 27° C., 1 week. The procedure:
as §1, §2, §3, §4

For test [5], the system named is T. mentagrophytes TIMM1177. To be noted: Trichophyton mentagrophytes, 168 h, Sabouraud's agar pH=5.9, 27° C., 1 week. As to the method: as §1, §2, §3, §4
The test system of test [6] is T. mentagrophytes IF05811. To be noted: Trichophyton mentagrophytes, 168 h, Sabouraud's agar pH=5.9, 27° C., 1 week. The procedure: as §1, §2, §3, §4
Test [7] deals with T. rubrum IF05808. Conditions: Trichophyton rubrum, 168 h, Sabouraud's agar pH=5.9, 27° C., 1 week. The procedure: as §1, §2, §3, §4
Test [8] concerns T. mentagrophytes TIMM1189. Conditions: Trichophyton mentagrophytes, 168 h, Sabouraud's agar pH=5.9, 27° C., 1 week. The procedure: as §1, §2, §3, §4
Test [9] has as its system M. gypseum IF08231. To be noted: Nannizzia gypsea, 168 h, Sabouraud's agar pH=5.9, 27° C., 1 week. The procedure: as §1, §2, §3, §4

Turning to `C=C(CN(C)C/C=C/C#CC(C)(C)C)c1cccc(Br)c1` [Compound PR-1484, Trans-N-(6,6-dimethyl-2-hepten-4-ynyl)-N-methyl-[2-(3-bromophenyl)-2-propenyl]amine], the minimum inhibitory concentration (MIC) in test [1] came out at 0.1 µg/mL (≈ 0.289 µM); in [2] it was 0.2 µg/mL (≈ 0.578 µM); in [3], 0.1 µg/mL (≈ 0.289 µM); in test [4] it was 0.1 µg/mL (≈ 0.289 µM); in test [5] it was 0.1 µg/mL (≈ 0.289 µM); in test [6], 0.1 µg/mL (≈ 0.289 µM). The minimum inhibitory concentration (MIC) in test [7] turned out to be 0.1 µg/mL (≈ 0.289 µM); in test [8], 0.39 µg/mL (≈ 1.13 µM); in test [9] it was 0.39 µg/mL (≈ 1.13 µM).

As to `C=C(CN(C)Cc1ccc(C(C)(C)C)cc1)c1ccccc1C` [Compound AD-028, N-(4-tert-butylbenzyl)-N-methyl-[2-(2-methylphenyl)-2-propenyl]amine], the MIC in [1] stood at 3.12 µg/mL (≈ 10.1 µM); in [2], 3.12 µg/mL (≈ 10.1 µM); in test [3], 3.12 µg/mL (≈ 10.1 µM); in [4], 6.25 µg/mL (≈ 20.3 µM); in test [5], 6.25 µg/mL (≈ 20.3 µM); in test [6] it was 6.25 µg/mL (≈ 20.3 µM). For the same compound, the MIC in test [7] is 3.12 µg/mL (≈ 10.1 µM); in test [8], 6.25 µg/mL (≈ 20.3 µM); in test [9] it was 6.25 µg/mL (≈ 20.3 µM).

Turning to `C=C(CN(C)C/C=C/C#CC(C)(C)C)c1cccc(C)c1` [Compound PR-1540, trans-N-(6,6-dimethyl-2-hepten-4-ynyl)-N-methyl-[2-(m-tolyl)-2-propenyl]amine], the MIC in test [1] is 0.1 µg/mL (≈ 0.355 µM); in test [2], 0.39 µg/mL (≈ 1.39 µM); in test [3], 0.1 µg/mL (≈ 0.355 µM); in test [4], 0.1 µg/mL (≈ 0.355 µM); in test [5], 0.39 µg/mL (≈ 1.39 µM); in test [6], 0.1 µg/mL (≈ 0.355 µM). The minimal inhibitory concentration (MIC) amounted to 0.1 µg/mL (≈ 0.355 µM) in test [7], 0.1 µg/mL (≈ 0.355 µM) in [8] and 1.56 µg/mL (≈ 5.54 µM) in [9].

Take `C=C(CN(C)Cc1ccc(C(C)(C)C)cc1)c1ccc(C)c(C)c1` [Compound AD-043, N-(4-tert-butylbenzyl)-N-methyl-[2-(3,4-dimethylphenyl)-2-propenyl]amine]: the minimal inhibitory concentration (MIC) amounted to 0.78 µg/mL (≈ 2.43 µM) in test [1]; 1.56 µg/mL (≈ 4.85 µM) in test [2]; 0.78 µg/mL (≈ 2.43 µM) in [3]; 1.56 µg/mL (≈ 4.85 µM) in [4]; 1.56 µg/mL (≈ 4.85 µM) in test [5]; 1.56 µg/mL (≈ 4.85 µM) in test [6]. Besides, the figures for the MIC in [7], in test [8] and in [9] were 0.2 µg/mL (≈ 0.622 µM), 1.56 µg/mL (≈ 4.85 µM) and 1.56 µg/mL (≈ 4.85 µM), respectively.

Take `C=C(CN(C)C/C=C/C#CC(C)(C)C)c1cc(F)cc(F)c1` [Compound PR-2159, Trans-N-(6,6-dimethyl-2-hepten-4-ynyl)-N-methyl-[2-(3,5-difluorophenyl)-2-propenyl]amine]: the minimal inhibitory concentration (MIC) in test [1] came out at 0.05 µg/mL (≈ 0.165 µM); in test [2], 0.2 µg/mL (≈ 0.659 µM); in test [3], 0.1 µg/mL (≈ 0.33 µM); in [4], 0.2 µg/mL (≈ 0.659 µM); in [5] it was 0.2 µg/mL (≈ 0.659 µM); in test [6], 0.2 µg/mL (≈ 0.659 µM). The MIC in test [7] worked out at 0.1 µg/mL (≈ 0.33 µM); in [8] it was 0.1 µg/mL (≈ 0.33 µM); in [9], 0.2 µg/mL (≈ 0.659 µM).

For the compound `C=C(CN(C)Cc1ccc(C(C)(C)C)cc1)c1cccc(C#N)c1` [Compound AD-052, 3-[1-{N-(4-tert-butylbenzyl)-N-methylamino}methyl]vinylbenzonitrile], the minimum inhibitory concentration (MIC) came to 0.39 µg/mL (≈ 1.22 µM) in test [1]; 0.78 µg/mL (≈ 2.45 µM) in test [2]; 0.39 µg/mL (≈ 1.22 µM) in test [3]; 1.56 µg/mL (≈ 4.9 µM) in test [4]; 0.78 µg/mL (≈ 2.45 µM) in test [5]; 0.39 µg/mL (≈ 1.22 µM) in test [6]. The minimum inhibitory concentration (MIC) in [7] stood at 0.39 µg/mL (≈ 1.22 µM); in test [8] it was 0.78 µg/mL (≈ 2.45 µM); in test [9], 0.39 µg/mL (≈ 1.22 µM).

In the case of `C=C(CN(C)C/C=C/C#CC(C)(C)C)c1ccc(O)cc1` [Compound PR-1606, Trans-N-(6,6-dimethyl-2-hepten-4-ynyl)-N-methyl-[2-(4-hydroxyphenyl)-2-propenyl]amine], the minimal inhibitory concentration (MIC) in test [1] was 25 µg/mL (≈ 88.2 µM); in test [2], 50 µg/mL (≈ 176 µM); in [3], 50 µg/mL (≈ 176 µM); in [4], 50 µg/mL (≈ 176 µM); in test [5] it was 50 µg/mL (≈ 176 µM); in test [6] it was 25 µg/mL (≈ 88.2 µM). The MIC in test [7] came out at 25 µg/mL (≈ 88.2 µM); in [8], 50 µg/mL (≈ 176 µM); in test [9], 25 µg/mL (≈ 88.2 µM).

As to `C=C(CN(C)Cc1ccc(C(C)(C)C)cc1)c1ccccc1[N+](=O)[O-]` [Compound AD-033, N-(4-tert-butylbenzyl)-N-methyl-[2-(2-nitrophenyl)-2-propenyl]amine], the minimum inhibitory concentration (MIC) is 6.25 µg/mL (≈ 18.5 µM) in test [1]; 6.25 µg/mL (≈ 18.5 µM) in test [2]; 3.12 µg/mL (≈ 9.22 µM) in test [3]; 12.5 µg/mL (≈ 36.9 µM) in [4]; 12.5 µg/mL (≈ 36.9 µM) in test [5]; 6.25 µg/mL (≈ 18.5 µM) in test [6]. Further, the MIC came out at 3.12 µg/mL (≈ 9.22 µM) in test [7], 12.5 µg/mL (≈ 36.9 µM) in test [8] and 12.5 µg/mL (≈ 36.9 µM) in test [9].

Take `C=C(CN(C)C/C=C/C#CC(C)(C)C)c1ccccc1N` [Compound PR-1672, Trans-N-(6,6-dimethyl-2-hepten-4-ynyl)-N-methyl-[2-(2-aminophenyl)-2-propenyl]amine]: the MIC in test [1] was 1.56 µg/mL (≈ 5.52 µM); in test [2], 1.56 µg/mL (≈ 5.52 µM); in [3], 1.56 µg/mL (≈ 5.52 µM); in test [4] it was 3.12 µg/mL (≈ 11 µM); in test [5], 3.12 µg/mL (≈ 11 µM); in test [6] it was 3.12 µg/mL (≈ 11 µM). Further, the results for the MIC in test [7], in [8] and in test [9] were 0.78 µg/mL (≈ 2.76 µM), 3.12 µg/mL (≈ 11 µM) and 3.12 µg/mL (≈ 11 µM), respectively.

On to `C=C(CN(C)C/C=C/C#CC(C)(C)C)c1ccc(F)cc1` [Compound PR-1430, trans-N-(6,6-dimethyl-2-hepten-4-ynyl)-N-methyl-[2-(4-fluorophenyl)-2-propenyl]amine], for which the minimal inhibitory concentration (MIC) in [1], in [2], in test [3], in test [4], in test [5] and in test [6] was 0.39 µg/mL (≈ 1.37 µM) in each case. For the same compound, the minimal inhibitory concentration (MIC) in [7] is 0.39 µg/mL (≈ 1.37 µM); in test [8], 0.39 µg/mL (≈ 1.37 µM); in test [9], 6.25 µg/mL (≈ 21.9 µM).

For the compound `C=C(CN(C)C/C=C/C#CC(C)(C)C)c1ccccc1` [Compound PR-1258, Trans-N-(6,6-dimethyl-2-hepten-4-ynyl)-N-methyl-2-phenyl-2-propenylamine], the MIC in [1] was 0.39 µg/mL (≈ 1.46 µM); in [2], 0.78 µg/mL (≈ 2.92 µM); in [3], 0.78 µg/mL (≈ 2.92 µM); in test [4], 1.56 µg/mL (≈ 5.83 µM); in test [5] it was 0.78 µg/mL (≈ 2.92 µM); in test [6] it was 1.56 µg/mL (≈ 5.83 µM). Moreover, the results for the MIC in test [7], in test [8] and in [9] were 0.39 µg/mL (≈ 1.46 µM), 0.78 µg/mL (≈ 2.92 µM) and 1.56 µg/mL (≈ 5.83 µM), respectively.

Take `CN(CC(=O)c1ccccc1O)Cc1ccc(C(C)(C)C)cc1` [Compound AD-057, 2-[N-(4-tert-butylbenzyl)-N-methylamino]-2'-hydroxyacetophenone]: the minimal inhibitory concentration (MIC) in [1] is 6.25 µg/mL (≈ 20.1 µM); in [2], 12.5 µg/mL (≈ 40.1 µM); in test [3] it was 6.25 µg/mL (≈ 20.1 µM); in test [4], 6.25 µg/mL (≈ 20.1 µM); in [5], 12.5 µg/mL (≈ 40.1 µM); in [6] it was 12.5 µg/mL (≈ 40.1 µM). Also, the MIC was found to be 3.12 µg/mL (≈ 10 µM) in test [7], 12.5 µg/mL (≈ 40.1 µM) in test [8] and 12.5 µg/mL (≈ 40.1 µM) in test [9].

`C=C(CN(C)Cc1ccc(C(C)(C)C)cc1)c1cccc([N+](=O)[O-])c1` [Compound AD-037, N-(4-tert-butylbenzyl)-N-methyl-[2-(3-nitrophenyl)-2-propenyl]amine]: the MIC in test [1] was 0.78 µg/mL (≈ 2.3 µM); in test [2] it was 1.56 µg/mL (≈ 4.61 µM); in test [3], 0.78 µg/mL (≈ 2.3 µM); in [4], 3.12 µg/mL (≈ 9.22 µM); in test [5], 1.56 µg/mL (≈ 4.61 µM); in test [6], 1.56 µg/mL (≈ 4.61 µM). Further, the minimal inhibitory concentration (MIC) in test [7] stood at 0.78 µg/mL (≈ 2.3 µM); in test [8] it was 3.12 µg/mL (≈ 9.22 µM); in test [9] it was 3.12 µg/mL (≈ 9.22 µM).

The MIC is the least concentration at which growth counts as inhibited. High values mean a need for much substance, low ones inhibition by little substance.
